For experiment [1], the target named is Muscarinic acetylcholine receptor M3 (Homo sapiens, UniProt P20309).
In experiment [2] the target is T1, Muscarinic acetylcholine receptor M5 (Homo sapiens, UniProt P08912).
T1 sequence (P08912 whole entry): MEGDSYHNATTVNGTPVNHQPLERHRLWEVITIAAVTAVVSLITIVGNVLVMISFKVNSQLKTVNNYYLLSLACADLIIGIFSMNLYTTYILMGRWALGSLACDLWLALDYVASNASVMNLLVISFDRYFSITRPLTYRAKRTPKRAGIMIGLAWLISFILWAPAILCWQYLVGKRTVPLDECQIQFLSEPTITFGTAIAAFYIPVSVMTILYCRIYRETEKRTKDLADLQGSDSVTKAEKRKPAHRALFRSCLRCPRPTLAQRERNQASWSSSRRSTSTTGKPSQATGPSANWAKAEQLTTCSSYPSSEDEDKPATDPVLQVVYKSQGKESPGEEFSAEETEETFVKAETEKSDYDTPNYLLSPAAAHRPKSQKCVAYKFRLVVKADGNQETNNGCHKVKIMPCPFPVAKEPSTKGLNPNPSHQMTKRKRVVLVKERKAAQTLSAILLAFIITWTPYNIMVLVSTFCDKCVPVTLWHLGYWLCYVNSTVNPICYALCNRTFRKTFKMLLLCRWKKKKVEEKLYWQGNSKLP

The target of experiment [3] is T2, Muscarinic acetylcholine receptor M4 (Homo sapiens, UniProt P08173).
T2 sequence (P08173 whole entry): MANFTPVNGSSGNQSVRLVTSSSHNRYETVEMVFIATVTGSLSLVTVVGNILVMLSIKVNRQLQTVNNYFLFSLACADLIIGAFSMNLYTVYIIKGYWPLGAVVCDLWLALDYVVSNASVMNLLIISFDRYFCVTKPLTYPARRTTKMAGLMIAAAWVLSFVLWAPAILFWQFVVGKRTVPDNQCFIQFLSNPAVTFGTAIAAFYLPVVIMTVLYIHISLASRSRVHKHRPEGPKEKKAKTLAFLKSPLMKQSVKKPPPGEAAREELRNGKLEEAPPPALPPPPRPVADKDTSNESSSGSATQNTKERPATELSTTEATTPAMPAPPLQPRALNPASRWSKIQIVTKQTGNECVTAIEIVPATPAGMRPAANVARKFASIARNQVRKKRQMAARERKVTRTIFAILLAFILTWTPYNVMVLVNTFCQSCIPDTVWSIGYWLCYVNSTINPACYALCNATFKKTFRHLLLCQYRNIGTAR

Experiment [4] addresses T3, Muscarinic acetylcholine receptor M1 (Homo sapiens, UniProt P11229).
T3 sequence (P11229 whole entry): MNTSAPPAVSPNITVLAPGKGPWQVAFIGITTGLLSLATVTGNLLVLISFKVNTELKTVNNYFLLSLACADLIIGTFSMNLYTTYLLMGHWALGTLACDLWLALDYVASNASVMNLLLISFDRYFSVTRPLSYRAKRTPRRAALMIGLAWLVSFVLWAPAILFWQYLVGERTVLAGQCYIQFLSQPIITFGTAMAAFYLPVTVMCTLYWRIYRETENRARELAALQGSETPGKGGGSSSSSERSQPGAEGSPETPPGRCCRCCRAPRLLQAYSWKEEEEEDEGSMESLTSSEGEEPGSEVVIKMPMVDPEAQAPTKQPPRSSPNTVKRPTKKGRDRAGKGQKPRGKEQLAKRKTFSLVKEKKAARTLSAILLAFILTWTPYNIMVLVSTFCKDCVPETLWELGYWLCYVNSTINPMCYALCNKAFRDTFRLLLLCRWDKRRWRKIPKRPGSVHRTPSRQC

Chain of Muscarinic acetylcholine receptor M3 (P20309 whole entry): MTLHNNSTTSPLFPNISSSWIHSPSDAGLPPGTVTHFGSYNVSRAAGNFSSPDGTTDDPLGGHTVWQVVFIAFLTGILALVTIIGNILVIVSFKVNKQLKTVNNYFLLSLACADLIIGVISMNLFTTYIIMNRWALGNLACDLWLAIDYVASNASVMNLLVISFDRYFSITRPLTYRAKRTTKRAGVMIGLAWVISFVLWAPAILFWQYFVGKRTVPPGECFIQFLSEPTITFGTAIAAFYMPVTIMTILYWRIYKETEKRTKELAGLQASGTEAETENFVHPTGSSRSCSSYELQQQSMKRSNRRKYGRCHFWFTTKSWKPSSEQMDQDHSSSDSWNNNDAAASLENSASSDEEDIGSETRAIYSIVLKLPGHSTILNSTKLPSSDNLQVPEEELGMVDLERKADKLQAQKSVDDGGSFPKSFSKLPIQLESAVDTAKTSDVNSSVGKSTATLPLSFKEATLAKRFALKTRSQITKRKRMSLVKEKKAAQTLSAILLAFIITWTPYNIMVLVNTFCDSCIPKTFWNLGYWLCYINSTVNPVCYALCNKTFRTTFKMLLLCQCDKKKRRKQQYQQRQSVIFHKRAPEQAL

In the case of `CN(CCCCCCCCN(C)CCCCCCN(CC(=O)N1c2ccccc2C(=O)Nc2cccnc21)CC(=O)N1c2ccccc2C(=O)Nc2cccnc21)CCCCCCNCC(=O)N1c2ccccc2C(=O)Nc2cccnc21` [NSC_132947], the Ki came out at 38.2 nM in experiment [1], 33.9 nM in experiment [2], 6.41 nM in experiment [3] and 1.58 nM in experiment [4].
For `COc1ccccc1CNCCCCCCNCCCCCCCCNCCCCCCNCc1ccccc1OC` [METHOCTRAMINE], the Ki in experiment [1] was determined as 277 nM; in experiment [2] it was 313 nM; in experiment [3], 38 nM.

The record behind these values is BindingDB's records for doi:10.1016/0922-4106(94)90075-2 (University of Pisa, 1994).
